In assay [1] the test system is Streptococcus mutans U159. The assay is classed as cell-based. Here is the method: MICs were assessed for all proteins/peptides against Streptococcus mutants (S. mutans) U159 oral bacteria to identify the lowest concentration at which no bacterial growth is observed. Planktonic bacteria were grown aerobically (10% CO2) in brain heart infusion (BHI) medium (BD BBL™ #211,059, MD, USA) overnight. […] BHI medium was used as a control. Bacteria were inoculated to a final concentration of 3.0 × 10^6 CFU/ml per well. The plates were incubated at 37 °C in a 10% CO2 atmosphere for 24 h under continuous shaking (200 rpm). Absorbance at 620 nm was measured using a microtiter plate reader (BioTek™ SynergyHT, VT, USA).

Assay [2] deals with S. mutans U159 biofilms. Nature of the assay: Crystal violet (CV) biomass assay on pellicle-coated substrates. In kind it is cell-based, Streptococcus mutans. As to conditions: no sucrose (NS), 24 h biofilm; for Biovolume / biomass of biofilm (crystal violet): pellicle-coated with 200 μM for 2 h at 37 °C, OD 620 nm, compared to whole saliva; for Biofilm structure (brightfield, crystal violet-stained): polystyrene microtiter plates. As for the experimental part: CV assay was performed to assess the remaining bioburden on pellicle-coated substrates with protein/peptide test groups in comparison to human whole saliva. Microtiter plates and HA discs were used as substrates to be pellicle-coated before growing biofilms. Each substrate was pellicle-coated with 50 μl of 200 μM protein/peptide candidates for 2 h at 37 °C under gentle shaking. Pooled filtered whole saliva and the vehicle were used as positive and negative controls respectively. The unbound protein/peptide/saliva were removed, the adjusted inoculum was dispensed without or with 1% sucrose supplementation and the samples were incubated as mentioned above but without agitation. Next day, the samples were rinsed and stained with 0.1% CV. After 15 min, the stain was rinsed, air dried, and photographed. All formed biofilms were structurally characterized with a bright field inverted microscope (EVOS™ xl core, MA, USA) before dissolving the satin, with 33% acetic acid, and reading at OD 620 nm.

Assay [3] concerns S. mutans U159 biofilms. The assay is described as follows: Live/dead vitality assay of biofilms on pellicle coatings. In kind it is cell-based, Streptococcus mutans. The conditions noted are these: NS and WS conditions, HA discs; order Hist3 followed by Hist5, Hist1 and RR14; 3 independent times, n = 5. As for the experimental part:
The vitality of grown biofilms was observed alongside their biomass to determine the antimicrobial efficacy of protein/peptide pellicle-coatings against the attached bacteria in the biofilm state. All the steps are the same as mentioned above till the staining step. Working fluorescent solution was prepared by adding 3 μl of SYTO® 9 stain and 3 μl of Propidium iodide stain to 1 ml of filter-sterilized water. The staining solution was added to each sample very gently so as not to disturb the biofilm. After 20 min light-protected incubation, samples were rinsed with 0.9% NaCl and imaged with fluorescent inverted microscope (EVOS™ M5000, MA, USA) using 20 × lens. All assays were conducted 3 independent times with sample size n = 5.

Assay [4] relates to S. mutans U159 biofilms. Nature of the assay: 2-photon 3D renderings of biofilms grown on pellicle-coated HA discs. The assay is classed as cell-based, Streptococcus mutans. As to conditions: 24 h biofilm, cariogenic conditions (1% sucrose), 2-photon 3D volume. From the text:
Z-stacks were acquired with the 2-photon microscope (Ultima IV, Prairie Technology Inc., WI, USA) for 3D structural and vitality characterization of biofilms grown on protein/peptide pellicle-coated HA discs. Non-descanned high sensitivity multi-alckali photocatode photomultiplier detectors (R3896, Hamamatsu, Japan) were used to allow visualization of multiple fluorophores located deep within the specimen. The infra-red (IR) laser (MAI TAI, Spectra-Physics, USA), tuned at 870 nm, was operated in pulsed mode using a 20 × NA1.0 water-immersion objective (XLUMPlanFLN, Olympus, Japan) with a 2 mm working distance suitable for deep imaging. Images were compiled and analyzed with FIJI software (Fiji Is Just) ImageJ, version: 2.1.0/1.53c https://imagej.net/Contributors[19].

The nature of assay [5]: 2-photon immobilization of fluorescently labelled proteins/peptides on human enamel. The assay is classed as binding. The conditions noted are these: FAM-labelled. From the text:
This characterization method aimed to monitor the amount of protein/peptide molecules immobilized on enamel in pellicle-mimicking conditions to infer their binding capacity. Z-stacks for pellicle-coated enamel slices were acquired to monitor the immobilization patterns and thus, the binding capacity of fluorescently-labelled proteins/peptides. Enamel samples were ground to 0.5–0.6 mm and polished with 600 silica-grit papers using a polishing machine (Buehler, IL, USA). Samples were then ultrasonicated in a water bath for 20 min, dried and pellicle-coated with fluorescently labeled proteins/peptides as mentioned above. 2-photon images were acquired as aforementioned using 40 × NA 0.8 water immersion objective (LUMPlanFl/IR, Olympus, Japan). Solutions of the tagging molecule (FAM) and the vehicle, 0.01% acetic acid, were used to pellicle-coat the positive and negative controls respectively. The amount of immobilized fluorescent protein/peptide molecules were quantified by calibrating the emitted fluorescence signals[21]^. The mean integrated density was calculated that sums all of the pixels along the acquired z-stacks, 4 images each.

Setting [6] is: planktonic S. mutans U159, BHI medium, 3.0 × 10^6 CFU/ml, twofold dilutions 0–512 μM, 37 °C, 10% CO2, 24 h, shaking 200 rpm, absorbance 620 nm.

Consider seven compounds from publication PMC8379205, “Bioinspired caries preventive strategy via customizable pellicles of saliva-derived protein/peptide constructs” (Scientific Reports, 2021).

One may read the MIC as the smallest concentration in the dilution series that meets the test's criterion for growth inhibition.

Where two headings read alike, the source gives them in different places. Non-standard residues stand in square brackets, D forms with d. Residues, ends and D or L forms follow the SMILES beside them. No end group written: not given here. pS = N[C@@H](COP(=O)(O)O)C(=O)O

Turning to `CC(C)C[C@H](NC(=O)[C@H](Cc1ccc(O)cc1)NC(=O)[C@H](CC(N)=O)NC(=O)[C@H](CO)NC(=O)[C@H](CCCNC(=N)N)NC(=O)[C@H](Cc1ccc(O)cc1)NC(=O)CNC(=O)[C@H](CCCNC(=N)N)NC(=O)[C@H](Cc1c[nH]cn1)NC(=O)[C@H](CO)NC(=O)[C@H](Cc1c[nH]cn1)NC(=O)[C@H](Cc1c[nH]cn1)NC(=O)[C@H](CCCCN)NC(=O)[C@H](CCC(=O)O)NC(=O)[C@H](Cc1c[nH]cn1)NC(=O)[C@H](Cc1ccccc1)NC(=O)[C@H](CCCCN)NC(=O)[C@H](CCCNC(=N)N)NC(=O)[C@H](CCCCN)NC(=O)[C@H](Cc1ccc(O)cc1)NC(=O)CNC(=O)[C@H](Cc1c[nH]cn1)NC(=O)[C@H](Cc1c[nH]cn1)NC(=O)[C@H](CCCNC(=N)N)NC(=O)[C@H](CCCCN)NC(=O)[C@H](C)NC(=O)[C@H](Cc1c[nH]cn1)NC(=O)[C@H](CO)NC(=O)[C@@H](N)CC(=O)O)C(=O)N[C@@H](Cc1ccc(O)cc1)C(=O)N[C@@H](CC(=O)O)C(=O)N[C@@H](CC(N)=O)C(=O)O` [Histatin3], in assay [1] (setting [6]), the MIC is 128 µM. In addition, in assay [2], the “Biovolume / biomass of biofilm (crystal violet)” value (from here on “Biovolume / biomass of biofilm”) is listed as “considerably reduced biomass build-up” and the “Biofilm structure (brightfield, crystal violet-stained)” value (“Biofilm structure” for short) was “more dispersed biofilms”. Moreover, the “Dead cells / antimicrobial efficacy in biofilm (Syto-9/propidium iodide)” value in assay [3] was “Many dead cells”.
Consider “DSpSpEEKFLRDSpSpEEKFLR [DR9-DR9, duplicated DR9 construct, domains linked synthetically]”, for which, in assay [1] (setting [6]), the MIC is more than 512 µM. Further, in assay [2], the “Biovolume / biomass of biofilm” value was “highest biovolume”; the “Biofilm structure” value is “clumps and aggregates”.
Regarding `N=C(N)NCCC[C@H](NC(=O)[C@H](Cc1ccc(O)cc1)NC(=O)CNC(=O)[C@H](CCCNC(=N)N)NC(=O)[C@H](Cc1c[nH]cn1)NC(=O)[C@H](CO)NC(=O)[C@H](Cc1c[nH]cn1)NC(=O)[C@H](Cc1c[nH]cn1)NC(=O)[C@H](CCCCN)NC(=O)[C@H](CCC(=O)O)NC(=O)[C@H](Cc1c[nH]cn1)NC(=O)[C@H](Cc1ccccc1)NC(=O)[C@H](CCCCN)NC(=O)[C@@H](N)CCCNC(=N)N)C(=O)O` [RR14] (H-RKFHEKHHSHRGYR-OH), in assay [1] (U159, 24 h), the minimum inhibitory concentration (MIC) turned out to be 384 µM.
On the same count and under the same terms, then `CC(C)C[C@H](NC(=O)[C@H](Cc1ccccc1)NC(=O)[C@H](CCCCN)NC(=O)[C@H](CCC(=O)O)NC(=O)[C@H](CCC(=O)O)NC(=O)[C@H](CO)NC(=O)[C@H](CO)NC(=O)[C@@H](N)CC(=O)O)C(=O)N[C@@H](CCCNC(=N)N)C(=O)O` [DR9/2] (H-DSSEEKFLR-OH), with more than 512 µM.
In the case of `CC(C)C[C@H](NC(=O)[C@H](Cc1ccccc1)NC(=O)[C@H](CCCCN)NC(=O)[C@H](CCC(=O)O)NC(=O)[C@H](CCC(=O)O)NC(=O)[C@H](COP(=O)(O)O)NC(=O)[C@H](COP(=O)(O)O)NC(=O)[C@@H](N)CC(=O)O)C(=O)N[C@@H](CCCNC(=N)N)C(=O)O` [DR9] (H-D[pS][pS]EEKFLR-OH; N-terminus and C-terminus assumed), in assay [1] (U159, 24 h), the MIC is listed as more than 512 µM. Besides, the “Biovolume / biomass of biofilm” value in assay [2] was “considerably reduced biomass build-up”. In addition, in assay [4], the Biofilm thickness is 60–65 μm.
In the case of “Histatin1: native salivary protein, synthesized (DSHEKRHHGYRRKFHEKHHSHREFPFYGDYGSNYLYDN; ends and bridges not checked; UniProt P15515 20-57, looked up)”, in assay [1] (setting [6]), the MIC is reported as more than 512 µM. In addition, the “Biovolume / biomass of biofilm” value in assay [2] is recorded as “highest biovolume”. Also, the “Dead cells / antimicrobial efficacy in biofilm (Syto-9/propidium iodide)” value in assay [3] is reported as “Many dead cells”.
Turning to “D[pS][pS]EEKFLRRIGRFGYGYGPYQPVPEQPLYPQPYQPQYQQYTF [Statherin]”, the MIC in assay [1] (U159, 24 h) is more than 512 µM. Further, in assay [2], the “Biovolume / biomass of biofilm” value is given as “highest biovolume”; the “Biofilm structure” value was “clumps and aggregates”. In assay [5], the “Immobilization capacity on enamel” value was “highest immobilization capacity”.
